# Source: US9056876B2, “Substituted 1H-pyrazolo[3′,4′,4,5]thieno[2,3-b]pyridin-3-amine analogs as positive allosteric modulators of the muscarinic acetylcholine receptor M4” (VANDERBILT UNIVERSITY, priority 2011, dated 2015)
# What was measured:
# [1] = molecular target: T1, mAChR M4 (UniProt P08173); experiment: mAChR M4 cell-based functional assay (calcium mobilization, Fluo-4, FDSS); conditions: CHO-K1 cells; for pEC50: positive allosteric modulator activity, EC20 acetylcholine response; for EC50: positive allosteric modulator activity: concentration-dependent increase in the EC20 acetylcholine response, >10 μM estimated for low potency (no plateau)
# T1 construct: hM1 and hM4 cDNAs were purchased from Missouri S&T cDNA Resource
# T1 sequence (P08173 1-479): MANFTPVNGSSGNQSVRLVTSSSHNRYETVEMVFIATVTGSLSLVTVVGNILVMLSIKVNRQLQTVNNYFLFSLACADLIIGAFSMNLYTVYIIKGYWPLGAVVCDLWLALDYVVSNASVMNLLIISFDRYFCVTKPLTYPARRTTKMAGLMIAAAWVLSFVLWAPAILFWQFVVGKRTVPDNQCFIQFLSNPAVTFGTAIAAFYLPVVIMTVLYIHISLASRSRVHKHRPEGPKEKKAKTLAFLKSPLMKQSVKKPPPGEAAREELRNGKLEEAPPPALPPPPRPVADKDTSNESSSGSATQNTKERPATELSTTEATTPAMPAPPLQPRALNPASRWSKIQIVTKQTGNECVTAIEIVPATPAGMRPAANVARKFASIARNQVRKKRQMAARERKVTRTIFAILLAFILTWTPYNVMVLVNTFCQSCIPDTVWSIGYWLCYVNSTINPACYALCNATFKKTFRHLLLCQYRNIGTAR
# Outline: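 CHO-K1 cells stably expressing hM4 or rM4 with chimeric Gqi5, loaded with Fluo-4 AM for 50 min at 37° C. Calcium read on FDSS 6000 over 300 s: compound added at 4 s, acetylcholine EC20 at 144 s and EC80 at 230 s. Agonist, PAM (EC20 increase) and antagonist (EC80 decrease) values fitted by four-parameter logistic.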
# [2] = in vivo; cited from earlier work
# [3] = test system: animal models; conditions: cited from earlier work
# [4] = test system: Alzheimer's disease patients; conditions: cited from earlier work
Structure (SMILES),pEC50 [1],EC50 [1] [µM],further results
"Cc1cc(C)c2c(n1)sc1c(NC3CCN(C(C)C)CC3)nn(C)c12 [Compound 162, N-(1-isopropylpiperidin-4-yl)-1,6,8-trimethyl-1H-pyrazolo[3′,4′:4,5]thieno[2,3-b]pyridin-3-amine]",<5.00,> 10,–
"Cc1cc(C)c2c(n1)sc1c(NCc3nccn3C)nn(C)c12 [Compound 163, 1,6,8-trimethyl-N-((1-methyl-1H-imidazol-2-yl)methyl)-1H-pyrazolo[3′,4′:4,5]thieno[2,3-b]pyridin-3-amine]",<5.00,> 10,–
"Cc1cc(C)c2c(n1)sc1c(NC(C)CS(C)(=O)=O)nn(C)c12 (stereo not drawn) [Compound 164, 1,6,8-trimethyl-N-(1-(methylsulfonyl)propan-2-yl)-1H-pyrazolo[3′,4′:4,5]thieno[2,3-b]pyridin-3-amine]",<5.00,> 10,–
"COCCn1nc(N)c2sc3nc(C)cc(C)c3c21 [Compound 165, 1-(2-methoxyethyl)-6,8-dimethyl-1H-pyrazolo[3′,4′:4,5]thieno[2,3-b]pyridin-3-amine]",<5.00,> 10,–
"CCCn1nc(N)c2sc3nc(C)cc(C)c3c21 [Compound 166, 6,8-dimethyl-1-propyl-1H-pyrazolo[3′,4′:4,5]thieno[2,3-b]pyridin-3-amine]",<5.00,> 10,–
"COCCn1nc(NCc2ccco2)c2sc3nc(C)cc(C)c3c21 [Compound 167, N-(furan-2-ylmethyl)-1-(2-methoxyethyl)-6,8-dimethyl-1H-pyrazolo[3′,4′:4,5]thieno[2,3-b]pyridin-3-amine]",<5.00,> 10,–
Nc1c2c(nc3ccccc13)CCCC2 [tacrine],–,–,"elevated liver transaminases, share of patients [2]: about 30%"
CCCCCCOc1nsnc1C1=CCCN(C)C1 [xanomeline],–,–,"catalepsy ([3]; in vivo): without causing catalepsy; activity in animal models ([3]; profiles similar to known antipsychotic drugs): active in animal models; psychotic behavioral symptoms (delusions, suspiciousness, vocal outbursts, hallucinations) [4]: reduce psychotic behavioral symptoms"

# More lines, main results first:
pEC50 [1],EC50 [1] [µM],Structure (SMILES),further results
<5.00,> 10,"Cc1cc(C)c2c(n1)sc1c(NC(=O)c3ccccc3)nn(C)c12 [Compound 152, N-(1,6,8-trimethyl-1H-pyrazolo[3′,4′:4,5]thieno[2,3-b]pyridin-3-yl)benzamide]",–
<5.00,> 10,"Cc1cc(C)c2c(n1)sc1c(NC(=O)C3CCCCC3)nn(C)c12 [Compound 153, N-(1,6,8-trimethyl-1H-pyrazolo[3′,4′:4,5]thieno[2,3-b]pyridin-3-yl)cyclohexanecarboxamide]",–
<5.00,> 10,"Cc1cc(C)c2c(n1)sc1c(NC(=O)c3ccc(F)cc3)nn(C)c12 [Compound 154, 4-fluoro-N-(1,6,8-trimethyl-1H-pyrazolo[3′,4′:4,5]thieno[2,3-b]pyridin-3-yl)benzamide]",–
<5.00,> 10,"COc1ccc(Cn2nc(N(C)C)c3sc4nc(C)cc(C)c4c32)cc1 [Compound 155, 1-(4-methoxybenzyl)-N,N,6,8-tetramethyl-1H-pyrazolo[3′,4′:4,5]thieno[2,3-b]pyridin-3-amine]",–
<5.00,> 10,"Cc1ccc2c(n1)sc1c(NCCC(C)C)n[nH]c12 [Compound 156, N-isopentyl-6-methyl-1H-pyrazolo[3′,4′:4,5]thieno[2,3-b]pyridin-3-amine]",–
<5.00,> 10,"Cc1ccc2c(n1)sc1c(NC(=O)c3ccccc3)nn(C)c12 [Compound 157, N-(1,6-dimethyl-1H-pyrazolo[3′,4′:4,5]thieno[2,3-b]pyridin-3-yl)benzamide]",–
<5.00,> 10,"Cc1ccc2c(n1)sc1c(NC(=O)c3ccc(Br)cc3)nn(C)c12 [Compound 158, 4-bromo-N-(1,6-dimethyl-1H-pyrazolo[3′,4′:4,5]thieno[2,3-b]pyridin-3-yl)benzamide]",–
<5.00,> 10,"Cc1ccnc2sc3c(NC(=O)c4ccccc4)nn(C)c3c12 [Compound 159, N-(1,8-dimethyl-1H-pyrazolo[3′,4′:4,5]thieno[2,3-b]pyridin-3-yl)benzamide]",–
<5.00,> 10,"Cc1ccnc2sc3c(NCC4CC4)nn(C)c3c12 [Compound 160, N-(cyclopropylmethyl)-1,8-dimethyl-1H-pyrazolo[3′,4′:4,5]thieno[2,3-b]pyridin-3-amine]",–
<5.00,> 10,"COc1ccc(Cn2nc(N)c3sc4nc(C)c(Cl)c(C)c4c32)cc1 [Compound 161, 7-chloro-1-(4-methoxybenzyl)-6,8-dimethyl-1H-pyrazolo[3′,4′:4,5]thieno[2,3-b]pyridin-3-amine]",–
